Test results: patent US10988445B2 (AstraZeneca AB, priority 2015, dated 2021)

What follows are compounds tested on human TH17 cells (assay: Inhibition of IL-17 release from human TH17 cells). Details: Homo sapiens, 96 h, isolated human TH17 cells, 4 days culture, IL-17A by HTRF; read-out: pIC50 IL-17 release (converted).
Type: cell-based
Description: Inhibition of IL-17 Release from Human TH17 Cells (IL-17 Release)
This test is designed to screen compounds for their inhibitory effect on the release of IL-17 from isolated and cultured human TH17 cells.
Peripheral blood mononuclear cells (PBMC) were isolated from heparin treated human whole blood fromhealthy donors by density gradient centrifugation. TH17 cells (CD4+CXCR3-CCR6+) were enriched using a human TH17 Cell Enrichment Kit (Stemcell Technologies) according to the manufacturer's protocol. […] On day 4 supernatants were collected and IL-17A was measured using a Human IL-17 HTRF Assay kit (Cisbio Bioassays) according to the manufacturer's protocol. […] Results

Row | Structure (SMILES) | IC50
1 | CC(C)[C@@H](O)C(=O)N1Cc2cc(S(C)(=O)=O)ccc2C1C(=O)Nc1ccc(C(O)(C(F)(F)F)C(F)(F)F)cc1 (single isomer, unassigned) [Example 422] | 39.8 nM
2 | CC(CO)C(=O)N1Cc2cc(S(C)(=O)=O)ccc2C1C(=O)Nc1ccc(C(O)(C(F)(F)F)C(F)(F)F)cc1 (centres unmarked) [Example 425, N-[4-(1,1,1,3,3,3-Hexafluoro-2-hydroxypropan-2-yl)phenyl]-2-(3-hydroxy-2-methylpropanoyl)-5-(methylsulfonyl)-2,3-dihydro-1H-isoindole-1-carboxamide] | 79.4 nM
3 | CCS(=O)(=O)c1ccc2c(c1)CN(C(=O)CC(C)(C)O)C2C(=O)Nc1ccc(C(O)(C(F)(F)F)C(F)(F)F)cc1 (centres unmarked) [Example 106, 5-(Ethylsulfonyl)-N-[4-(1,1,1,3,3,3-hexafluoro-2-hydroxypropan-2-yl)phenyl]-2-(3-hydroxy-3-methylbutanoyl)-2,3-dihydro-1H-isoindole-1-carboxamide] | 63.1 nM
4 | O=C(Nc1ccc(C(O)(C(F)(F)F)C(F)(F)F)cc1)C1c2ccc(S(=O)(=O)CC3CC3)cc2CN1C(=O)C(F)(F)C1CC1 (centres unmarked) [Example 214, 2-[Cyclopropyl(difluoro)acetyl]-5-[(cyclopropylmethyl)sulfonyl]-N-[4-(1,1,1,3,3,3-hexafluoro-2-hydroxypropan-2-yl)phenyl]-2,3-dihydro-1H-isoindole-1-carboxamide] | 10 nM
5 | O=CN1Cc2cc(S(=O)(=O)C3CC3)ccc2C1C(=O)Nc1ccc(C(O)(C(F)(F)F)C(F)(F)F)cc1 (centres unmarked) [Example 604, 5-(Cyclopropylsulfonyl)-2-formyl-N-[4-(1,1,1,3,3,3-hexafluoro-2-hydroxypropan-2-yl)phenyl]-2,3-dihydro-1H-isoindole-1-carboxamide] | 50.1 nM
6 | C[C@H](O)CC(=O)N1Cc2cc(S(C)(=O)=O)ccc2C1C(=O)Nc1ccc(C(O)(C(F)(F)F)C(F)(F)F)cc1 (stereo partly drawn) [Example 433, N-[4-(1,1,1,3,3,3-Hexafluoro-2-hydroxypropan-2-yl)phenyl]-2-[(3S)-3-hydroxybutanoyl]-5-(methylsulfonyl)-2,3-dihydro-1H-isoindole-1-carboxamide] | 79.4 nM
7 | O=C(Nc1ccc(C(O)(C(F)(F)F)C(F)(F)F)cc1)C1c2ccc(S(=O)(=O)CC3CC3)cc2CN1C(=O)C1CCCO1 (centres unmarked) [Example 208, 5-[(Cyclopropylmethyl)sulfonyl]-N-[4-(1,1,1,3,3,3-hexafluoro-2-hydroxypropan-2-yl)phenyl]-2-(tetrahydrofuran-2-ylcarbonyl)-2,3-dihydro-1H-isoindole-1-carboxamide] | 20 nM
8 | CCOC1(C(=O)N2Cc3cc(S(C)(=O)=O)ccc3C2C(=O)Nc2ccc(C(O)(C(F)(F)F)C(F)(F)F)cc2)CC1 (centres unmarked) [Example 416, 2-[(1-Ethoxycyclopropyl)carbonyl]-N-[4-(1,1,1,3,3,3-hexafluoro-2-hydroxypropan-2-yl)phenyl]-5-(methylsulfonyl)-2,3-dihydro-1H-isoindole-1-carboxamide] | 31.6 nM
9 | CC(=O)N1Cc2cc(S(=O)(=O)CC3(O)CC3)ccc2C1C(=O)Nc1ccc(C(O)(C(F)(F)F)C(F)(F)F)cc1 (centres unmarked) [Example 1101, 2-Acetyl-N-[4-(1,1,1,3,3,3-hexafluoro-2-hydroxypropan-2-yl)phenyl]-5-{[(1-hydroxycyclopropyl)methyl]sulfonyl}-2,3-dihydro-1H-isoindole-1-carboxamide] | 63.1 nM
10 | CS(=O)(=O)c1ccc2c(c1)CN(C(=O)NC1CC1)C2C(=O)Nc1ccc(C(O)(C(F)(F)F)C(F)(F)F)cc1 (centres unmarked) [Example 456, N^2—Cyclopropyl-N^1-[4-(1,1,1,3,3,3-hexafluoro-2-hydroxypropan-2-yl)phenyl]-5-(methylsulfonyl)-1,3-dihydro-2H-isoindole-1,2-dicarboxamide] | 12.6 nM
11 | COC1(C(=O)N2Cc3cc(S(=O)(=O)CC4CC4)ccc3C2C(=O)Nc2ccc(C(O)(C(F)(F)F)C(F)(F)F)cc2)CC1 (centres unmarked) [Example 212, 5-[(Cyclopropylmethyl)sulfonyl]-N-[4-(1,1,1,3,3,3-hexafluoro-2-hydroxypropan-2-yl)phenyl]-2-[(1-methoxycyclopropyl)carbonyl]-2,3-dihydro-1H-isoindole-1-carboxamide] | 15.8 nM
12 | CCOC(=O)N1Cc2cc(S(=O)(=O)NC)ccc2C1C(=O)Nc1ccc(C(O)(C(F)(F)F)C(F)(F)F)cc1 (centres unmarked) [Example 305, Ethyl 1-{[4-(1,1,1,3,3,3-hexafluoro-2-hydroxypropan-2-yl)phenyl]carbamoyl}-5-(methylsulfamoyl)-1,3-dihydro-2H-isoindole-2-carboxylate] | 10 nM
13 | COCCS(=O)(=O)c1ccc2c(c1)CN(C(=O)COC)C2C(=O)Nc1ccc(C(O)(C(F)(F)F)C(F)(F)F)cc1 (centres unmarked) [Example 706, N-[4-(1,1,1,3,3,3-Hexafluoro-2-hydroxypropan-2-yl)phenyl]-2-(methoxyacetyl)-5-[(2-methoxyethyl)sulfonyl]-2,3-dihydro-1H-isoindole-1-carboxamide] | 50.1 nM
14 | COC1(C(=O)N2Cc3cc(S(C)(=O)=O)ccc3C2C(=O)Nc2ccc(C(O)(C(F)(F)F)C(F)(F)F)cc2)CCCC1 (centres unmarked) [Example 434] | 25.1 nM
15 | COC1(C(=O)N2Cc3cc(S(C)(=O)=O)ccc3C2C(=O)Nc2ccc(C(O)(C(F)(F)F)C(F)(F)F)c(F)c2)CC1 (centres unmarked) [Example 440, N-[3-Fluoro-4-(1,1,1,3,3,3-hexafluoro-2-hydroxypropan-2-yl)phenyl]-2-[(1-methoxycyclopropyl)carbonyl]-5-(methylsulfonyl)-2,3-dihydro-1H-isoindole-1-carboxamide] | 31.6 nM
16 | CCS(=O)(=O)c1ccc2c(c1)CN(C(=O)C1(CO)CC1)C2C(=O)Nc1ccc(C(O)(C(F)(F)F)C(F)(F)F)cc1 (centres unmarked) [Example 117, 5-(Ethylsulfonyl)-N-[4-(1,1,1,3,3,3-hexafluoro-2-hydroxypropan-2-yl)phenyl]-2-{[1-(hydroxymethyl)cyclopropyl]carbonyl}-2,3-dihydro-1H-isoindole-1-carboxamide] | 79.4 nM
17 | O=C(Nc1ccc(C(O)(C(F)(F)F)C(F)(F)F)cc1)C1c2ccc(S(=O)(=O)CC3(O)CC3)cc2CN1C(=O)CO (centres unmarked) [Example 1103, N-[4-(1,1,1,3,3,3-Hexafluoro-2-hydroxypropan-2-yl)phenyl]-2-(hydroxyacetyl)-5-{[(1-hydroxycyclopropyl)methyl]sulfonyl}-2,3-dihydro-1H-isoindole-1-carboxamide] | 501 nM
18 | CNS(=O)(=O)c1ccc2c(c1)CN(C(=O)OC)C2C(=O)Nc1ccc(C(O)(C(F)(F)F)C(F)(F)F)cc1 (centres unmarked) [Example 304, Methyl 1-{[4-(1,1,1,3,3,3-hexafluoro-2-hydroxypropan-2-yl)phenyl]carbamoyl}-5-(methylsulfamoyl)-1,3-dihydro-2H-isoindole-2-carboxylate] | 12.6 nM
19 | CC(C)[C@H](O)C(=O)N1Cc2cc(S(C)(=O)=O)ccc2C1C(=O)Nc1ccc(C(O)(C(F)(F)F)C(F)(F)F)cc1 (single isomer, unassigned) [Example 423] | 79.4 nM
20 | CC(=O)N1Cc2cc(S(C)(=O)=O)ccc2C1C(=O)Nc1ccc(C(O)(C(F)(F)F)C(F)(F)F)cc1F (centres unmarked) [Example 437, 2-Acetyl-N-[2-fluoro-4-(1,1,1,3,3,3-hexafluoro-2-hydroxypropan-2-yl)phenyl]-5-(methylsulfonyl)-2,3-dihydro-1H-isoindole-1-carboxamide] | 20 nM
21 | CO[C@H](C)C(=O)N1Cc2cc(S(C)(=O)=O)ccc2C1C(=O)Nc1ccc(C(O)(C(F)(F)F)C(F)(F)F)cc1 (mixture of isomers) [Example 449, N-[4-(1,1,1,3,3,3-Hexafluoro-2-hydroxypropan-2-yl)phenyl]-2-[(2R)-2-methoxypropanoyl]-5-(methylsulfonyl)-2,3-dihydro-1H-isoindole-1-carboxamide] | 79.4 nM
22 | COCCS(=O)(=O)c1ccc2c(c1)CN(C(=O)C1(OC)CC1)C2C(=O)Nc1ccc(C(O)(C(F)(F)F)C(F)(F)F)cc1 (centres unmarked) [Example 703, N-[4-(1,1,1,3,3,3-hexafluoro-2-hydroxypropan-2-yl)phenyl]-2-[(1-methoxycyclopropyl)carbonyl]-5-[(2-methoxyethyl)sulfonyl]-2,3-dihydro-1H-isoindole-1-carboxamide] | 25.1 nM
23 | CCS(=O)(=O)c1ccc2c(c1)CN(C(=O)CC1(O)CC1)C2C(=O)Nc1ccc(C(O)(C(F)(F)F)C(F)(F)F)cc1 (centres unmarked) [Example 107, 5-(Ethylsulfonyl)-N-[4-(1,1,1,3,3,3-hexafluoro-2-hydroxypropan-2-yl)phenyl]-2-[(1-hydroxycyclopropyl)acetyl]-2,3-dihydro-1H-isoindole-1-carboxamide] | 50.1 nM
24 | COC1(C(=O)N2Cc3cc(S(=O)(=O)CCO)ccc3C2C(=O)Nc2ccc(C(O)(C(F)(F)F)C(F)(F)F)cc2)CC1 (centres unmarked) [Example 802, N-[4-(1,1,1,3,3,3-Hexafluoro-2-hydroxypropan-2-yl)phenyl]-5-[(2-hydroxyethyl)sulfonyl]-2-[(1-methoxycyclopropyl)carbonyl]-2,3-dihydro-1H-isoindole-1-carboxamide] | 79.4 nM

Same assay, conditions: isolated human TH17 cells, 4 days culture, IL-17A by HTRF; listed as 307, isomer 2

Row | Structure (SMILES) | pIC50 IL-17 release
25 | CC[C@H](O)C(=O)N1Cc2cc(S(=O)(=O)NC)ccc2C1C(=O)Nc1ccc(C(O)(C(F)(F)F)C(F)(F)F)cc1 (single isomer, unassigned) [Example 307, isomer 2, (R) or (S)N-[4-(1,1,1,3,3,3-Hexafluoro-2-hydroxypropan-2-yl)phenyl]-2-[(2S)-2-hydroxybutanoyl]-5-(methylsulfamoyl)-2,3-dihydro-1H-isoindole-1-carboxamide] | 6.5

Same assay, conditions: isolated human TH17 cells, 4 days culture, IL-17A by HTRF; listed as 452, isomer 1

Row | Structure (SMILES) | pIC50 IL-17 release
26 | CC1(C(=O)N2Cc3cc(S(C)(=O)=O)ccc3[C@@H]2C(=O)Nc2ccc(C(O)(C(F)(F)F)C(F)(F)F)cc2)CCO1 (single isomer, unassigned) [Example 452, isomer 1] | 7.7
